According to US5716958A, “Amino acid derivative having anti-CCK activity” (Tobishi Pharmaceutical Co., Ltd., priority 1994, dated 1998):
Read-outs that look alike come from different tables or passages of the source.

Legend:
[1] = biological target: T1, CCK-A (Rattus norvegicus, UniProt P30551); assay: Peripheral receptor (CCK-A) binding experiment, [^3 H]-CCK-8 binding inhibition; conditions: for CCK-B/CCK-A: ratio of IC50 values CCK-B/CCK-A (selectivity for CCK-A), 60 min
T1 construct: CCK-A receptors prepared from the cell membranes of rat pancreas; from tissue; host or cells: rat pancreas membranes (male rats, Japan Laboratory Animals)
T1 sequence (P30551 1-444): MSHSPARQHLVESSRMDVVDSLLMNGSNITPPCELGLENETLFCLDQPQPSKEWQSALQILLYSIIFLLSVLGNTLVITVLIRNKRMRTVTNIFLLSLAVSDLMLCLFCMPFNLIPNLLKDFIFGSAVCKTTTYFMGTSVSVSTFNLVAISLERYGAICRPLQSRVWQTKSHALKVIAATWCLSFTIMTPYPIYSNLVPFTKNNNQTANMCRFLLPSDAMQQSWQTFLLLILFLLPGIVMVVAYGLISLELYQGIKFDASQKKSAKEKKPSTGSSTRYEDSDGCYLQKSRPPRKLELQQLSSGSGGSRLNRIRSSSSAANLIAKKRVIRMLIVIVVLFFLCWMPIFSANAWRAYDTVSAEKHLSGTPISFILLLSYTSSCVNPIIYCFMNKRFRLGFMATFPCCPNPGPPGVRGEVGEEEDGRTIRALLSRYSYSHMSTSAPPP
Procedure: (§1) Peripheral Receptor (CCK-A) and Central Receptor (CCK-B) Binding Experiment
(§2) The pancreas and cerebrum of male rats (Japan Laboratory Animals), which were sacrificed by decapitation and having body weights of 250-300 g, were extracted and immersed in cold Hepes buffer. After suspending these tissues using a Potter homogenizer, the suspension was centrifuged for 10 minutes at 48,000×g. The resulting residue was again suspended by addition of cold Hepes buffer and centrifuged for 10 minutes at 48,000×g. The resulting residue was transferred to cold incubation buffer.
(§3) A 1 ml aliquot of the homogenate was incubated for 60 minutes at 25° C. in the presence of 0.2 nM [^3 H]-CCK-8 and the test compound, in the presence of vehicle only (for measurement of 100% binding), or in the presence of 1 μM cold CCK-8 (for measurement of non-specific binding). Next, the reaction solution was promptly suction filtered using a Whatman glass GF/B filter immersed in Hepes buffer followed by washing the filter with cold Hepes buffer. Next, the glass filter was placed in Aquasol-2 followed by assay of radioactivity with a liquid scintillation counter.
(§4) The compound numbers shown in Table 3 indicate the target compounds according to the number of the embodiment.

[2] = biological target: T2, CCK-B (Rattus norvegicus, UniProt P30553); assay: Central receptor (CCK-B) binding experiment, [^3 H]-CCK-8 binding inhibition; conditions: rat cerebrum homogenate, 0.2 nM [^3 H]-CCK-8, 60 minutes at 25° C
T2 construct: CCK-B receptors originating in the cell membrane of rat brain cells; from tissue; host or cells: rat cerebrum membranes (male rats, Japan Laboratory Animals)
T2 sequence (P30553 1-452): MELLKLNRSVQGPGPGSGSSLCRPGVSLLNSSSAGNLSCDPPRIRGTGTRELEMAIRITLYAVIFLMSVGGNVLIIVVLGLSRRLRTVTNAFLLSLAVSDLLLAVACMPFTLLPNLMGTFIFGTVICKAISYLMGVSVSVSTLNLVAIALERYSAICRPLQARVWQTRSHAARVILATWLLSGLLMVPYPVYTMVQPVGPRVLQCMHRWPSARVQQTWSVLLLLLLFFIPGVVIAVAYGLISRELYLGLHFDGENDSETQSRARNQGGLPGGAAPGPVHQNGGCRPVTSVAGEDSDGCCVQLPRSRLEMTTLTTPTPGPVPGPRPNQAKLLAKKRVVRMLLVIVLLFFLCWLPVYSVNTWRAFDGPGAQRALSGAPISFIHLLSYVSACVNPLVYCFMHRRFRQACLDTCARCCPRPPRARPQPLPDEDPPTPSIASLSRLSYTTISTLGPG
Procedure: as §1, §2, §3, §4

[3] = tested on: extracted guinea pig ileum; assay: Anti-CCK action in extracted guinea pig ileum (inhibition of CCK-8-induced contraction, Magnus tube); parameters: species or system guinea pig (Hartley strain, male); conditions: Cavia porcellus; contraction by 1×10^-8 M CCK-8, test compound added 5 minutes before; extracted ileum, 37° C; read-out: Active IC50
Procedure: Anti-cholecystokinin (CCK) Action in Extracted Guinea Pig Ileum After sacrificing a male guinea pig (Hartley strain) by striking and exsanguination, a piece of extracted ileum was suspended from a Magnus tube, while applying tension of 0.5 g, containing 30 ml of Tyrode's solution (NaCl 136.9 mM, KCl 2.68 mM, CaCl2 1.8 mM, MgCl2 1.05 mM, NaH2 PO4 0.42 mM, NaHCO3 11.9 mM and glucose 5.55 mM) and ventilated with mixed O2 gas containing 5% CO2 at 37° C. Changes in contraction were recorded on smoked paper for isotonicity via a bevel. The piece of ileum was allowed to stand undisturbed for 30 minutes and then contracted by addition 1×10^-8 M CCK-8. After washing, this was repeated several times. After the contraction by CCK-8 had stabilized, the test compound was added. Contraction resulting from addition of 1×10^-8 M CCK was then measured 5 minutes later. The contraction caused by CCK-8 and the contraction caused by CCK-8 in the presence of the test compound at varying concentrations were compared, and the resulting IC50 values (concentration of test substance at which contraction caused by CCK-8 is inhibited by 50%) are shown in Table 2. The compound numbers shown in Table 2 indicate the target compounds according to the numbers of the embodiments.

[4] = rat pancreas homogenate, 0.2 nM [^3 H]-CCK-8, 60 minutes at 25° C, read-out: CCK-A IC50
[5] = rat pancreas cell membranes, read-out: activity in binding experiment on CCK-A receptors prepared from the cell membranes of rat pancreas

SMILES	IC50 [1, 4]	CCK-B/CCK-A [1]	IC50 [2]	IC50 [1, 5]	IC50 [3]
CCCCCN(CCCOC)C(=O)C(CCC(=O)O)NC(=O)c1ccc(Cl)c(Cl)c1 (stereo not drawn) [CR1505, Loxiglumide, reference compound]	1.5 µM	16	24 µM	–	3.3 µM
COc1ccc(C(c2ccc(OC)cc2)N2CCN(C(=O)[C@H](CSc3ncccc3C(=O)O)NC(=O)c3cc4ccccc4[nH]3)CC2)cc1 [Compound 7-4, (R)-4-bis(4-methoxyphenyl)methyl-1-[3-(3-carboxypyridin-2-yl)thio-2-(indol-2-yl)carbonylamino]propionylpiperazine]	0.8 µM	76	61 µM	–	–
O=C(N[C@@H](CSc1ccccc1C(=O)O)C(=O)N1CCN(C(c2ccccc2)c2ccccc2)CC1)c1cc2ccccc2[nH]1 [Compound 9-3, (R)-1-[3-(2-carboxyphenyl)thio-2-(indol-2-yl)carbonylamino]propionyl-4-diphenylmethylpiperazine]	0.21 µM	29	6 µM	–	–
COc1ccc2[nH]c(C(=O)N[C@@H](CSc3ncccc3C(=O)O)C(=O)N3CCC(C(c4ccccc4)c4ccccc4)CC3)cc2c1 [Compound 21-2, (R)-1-[3-(3-carboxypyridin-2-yl)thio-2-(5-methoxyindol-2-yl)carbonylamino]propionyl-4-diphenylmethylpiperidine]	0.013 µM	130770	1700 µM	–	–
O=C(N[C@@H](CCCn1nnc(C(=O)O)c1C(=O)O)C(=O)N1CCN(C(c2ccccc2)c2ccccc2)CC1)c1cc2ccccc2[nH]1 [Compound 23-6, (S)-1-[5-(4,5-dicarboxy-1,2,3-triazol-1-yl)-2-(indol-2-yl)carbonylamino]valeryl-4-diphenylmethylpiperazine]	0.14 µM	179	25 µM	–	–
O=C(N[C@@H](CCCn1nncc1C(=O)O)C(=O)N1CCN(C(c2ccccc2)c2ccccc2)CC1)c1cc2ccccc2[nH]1 [Compound 28-3, (S)-1-[5-(5-carboxy-1,2,3-triazol-1-yl)-2-(indol-2-yl)carbonylamino]valeryl-4-diphenylmethylpiperazine]	0.07 µM	43	3 µM	–	–
O=C(O)c1cn(CCC[C@H](NC(=O)c2cc3ccccc3[nH]2)C(=O)N2CCN(C(c3ccccc3)c3ccccc3)CC2)nn1 [Compound 29-2, (S)-1-[5-(4-carboxy-1,2,3-triazol-1-yl)-2-(indol-2-yl)carboxyamino]valeryl-4-diphenylmethylpiperazine]	1.5 µM	17	26 µM	–	–
O=C(N[C@@H](Cn1nnc(C(=O)O)c1C(=O)O)C(=O)N1CCN(C(c2ccccc2)c2ccccc2)CC1)c1cc2ccccc2[nH]1 [Compound 31-3, (S)-1-[3-(4,5-dicarboxy-1,2,3-triazol-1-yl)-2-(indol-2-yl)carbonylamino]propionyl-4-diphenylmethylpiperazine]	–	–	–	–	0.032 µM
O=C(N[C@@H](Cn1nncc1C(=O)O)C(=O)N1CCN(C(c2ccccc2)c2ccccc2)CC1)c1cc2ccccc2[nH]1 [Compound 32-2, (S)-4-diphenylmethyl-1-[3-(5-carboxy-1,2,3-triazol-1-yl)-2-(indol-2-yl)carbonylamino]propionylpiperazine]	–	–	–	–	0.036 µM

Second part, led by results:

IC50 [1, 4]	CCK-B/CCK-A [1]	IC50 [2]	IC50 [1, 5]	SMILES	IC50 [3]
0.0051 µM	2745	14 µM	0.0051 µM	O=C(N[C@@H](CSc1ncccc1C(=O)O)C(=O)N1CCN(C(c2ccccc2)c2ccccc2)CC1)c1cc2ccccc2[nH]1 [Compound 1-6, (R)-1-[3-(3-carboxypyridin-2-yl)thio-2-(indol-2-yl)carbonylamino]propionyl-4-diphenylmethylpiperazine]	0.013 µM
0.0043 µM	13256	57 µM	0.0043 µM	O=C(N[C@@H](CSc1ncccc1C(=O)O)C(=O)N1CCC(C(c2ccccc2)c2ccccc2)CC1)c1cc2ccccc2[nH]1 [Compound 2-6, (R)-4-diphenylmethyl-1-[3-(3-carboxypyridin-2-yl)thio-2-(indol-2-yl)carbonylamino)propionylpiperidine]	0.06 µM
0.043 µM	419	18 µM	–	COc1ccc2[nH]c(C(=O)N[C@@H](CSc3ncccc3C(=O)O)C(=O)N3CCN(C(c4ccccc4)c4ccccc4)CC3)cc2c1 [Compound 6-2, (R)-1-[3-(3-carboxypyridin-2-yl)thio-2-(5-methoxyindol-2-yl)carbonylamino]propionyl-4-diphenylmethylpiperazine]	0.052 µM
0.05 µM	1140	57 µM	–	O=C(N[C@@H](CSc1ncccc1C(=O)O)C(=O)N1CCN(C(c2ccccn2)c2ccccn2)CC1)c1cc2ccccc2[nH]1 [Compound 8-5, (R)-4-bis(2-pyridyl)methyl-1-[3-(3-carboxypyridin-2-yl)thio-2-(indol-2-yl)carbonylamino]propionylpiperazine]	0.35 µM
0.006 µM	6000	36 µM	0.006 µM	O=C(N[C@@H](CSc1ncccc1C(=O)O)C(=O)N1CCN(C(c2ccc(F)cc2)c2ccc(F)cc2)CC1)c1cc2ccccc2[nH]1 [Compound 10-4, (R)-4-bis(4-fluorophenyl)methyl-1-[3-(3-carboxypyridin-2-yl)thio-2-(indol-2-yl)carbonylamino]propionylpiperazine]	0.048 µM
0.009 µM	7111	64 µM	0.009 µM	O=C(N[C@@H](CSc1ncccc1C(=O)O)C(=O)N1CCN(C2c3ccccc3CCc3ccccc32)CC1)c1cc2ccccc2[nH]1 [Compound 19-5, (R)-1-[3-(3-carboxypyridin-2-yl)thio-2-(indol-2-yl)carbonylamino]propionyl-4-(10,11-dihydro-5H-dibenzo[a,d]cyclohepten-5-yl)piperazine]	–
0.06 µM	> 16667	> 1000 µM	–	O=C(N[C@@H](CSc1ncccc1C(=O)O)C(=O)N1CCC(C(c2ccccc2)c2ccccc2)CC1)c1cc2cc(Cl)ccc2[nH]1 [Compound 20-2, (R)-1-[3-(3-carboxypyridin-2-yl)thio-2-(5-chloroindol-2-yl)carbonylamino]propionyl-4-diphenylmethylpiperidine]	–
0.21 µM	57	12 µM	–	O=C(N[C@@H](CCSc1ncccc1C(=O)O)C(=O)N1CCN(C(c2ccccc2)c2ccccc2)CC1)c1cc2ccccc2[nH]1 [Compound 25-7, (S)-1-[4-(3-carboxypyridin-2-yl)thio-2-(indol-2-yl)carbonylamino]butyryl-4-diphenylmethylpiperazine]	–
